Data taken from patent US20220023323A1, “RESETTING BIOLOGICAL PATHWAYS FOR DEFENDING AGAINST AND REPAIRING DETERIORATION FROM HUMAN AGING” (priority 2015, published 2022).

Columns and labels:
Sirt1 = Sirt1 (Homo sapiens, UniProt Q96EB6); conditions: cited from earlier work
[1] = estimated; cited from earlier work
[2] = no light and no contaminants in deionized/distilled H2O; cited from earlier work
[3] = cited from earlier work
PARP-1 = PARP-1 (Homo sapiens, UniProt P09874); conditions: cited from earlier work
Sirtuins = conditions: most Sirtuins; cited from earlier work
[4] = cited from earlier work; remark: listed apart in the source
CMV IgG = test: LabCor monthly serum marker testing: CMV IgG; format: in vivo, human; conditions: person, oral twice daily
Protocol: (§1) A person weighing 88 kg at the beginning of the treatment was treated with a regimine of category 1, category 2, and category 3 molecules as noted below.
Typical final concentrations of NMN taken by subject were 3.5 grams in 500 mL H2O, betaine were 3 grams in 500 mL H2O, H2O2 were (2 drops of 35% concentration in 500 mL H2O), and NaSH were (drops of 2 at 66 uM per drop concentration in 500 mL H2O).
(§2) The amounts of each composition were set so that by the subject drinking the full 500 mL a final dosage approximately 1.19×10^−4 moles NMN/kg body weight per dose, 2.91×10^−4 moles betaine/kg body weight per dose, 1.17×10^−5 moles of H2O2/kg of body weight per dose, and 1.51×10^−6 moles cf NaSH/kg of body weight per dose was given to the subject through drinking the 500 mL solution.
(§3) By taking two similar dosages per day, the sum of the two daily equal allotments was • Nicotinamide Mononucleotide (NMN) dosage−2.38×10^−4 moles/Kg body weight/day • The betaine dosage−5.82×10^−4 moles/Kg body weight/day • The Hydrogen Peroxide (H2O2) dosage−2.34×10^−5 moles/Kg body weight/day • The Sodium Hydrogen Sulfide (NaSH) dosage−3.02×10^−6 moles/Kg body weight/day
(§4) The subject self-administered the formulations orally through drinking the solution at approximately 7AM and 7 PM each day. These times were chosen because they approximated the subjects' biological clock peaks of NAD+ as determined by Ramsey K 2009. This had the effect of pulsing the ingredients into the body twice a day. approximately timed with the biological clock of the subject.
(§5) LabCor Inc. performed the marker testing using standard protocols on a monthly basis. Blood draw times ranged between 8:19 am and 8:54 am. Inflammatory measurements are correlated to the biological clock. LabCor tested levels of CMV IgG, C-Reactive Protein, Tumor Necrosis Factor-Alpha, and Interleukin-6 in Serum.

C-Reactive Protein = test: LabCor monthly serum marker testing: C-Reactive Protein; format: in vivo, human; conditions: for C-Reactive Protein: serum, person, oral twice daily, baseline 2.77
Protocol: The amounts of each composition were set so that by the subject drinking the full 500 mL a final dosage approximately 1.19×10^−4 moles NMN/kg body weight per dose, […] through drinking the 500 mL solution. […]
as §4, §5

[5] = test system: Tumor Necrosis Factor-Alpha; test: LabCor monthly serum marker testing: Tumor Necrosis Factor-Alpha; format: in vivo, human; conditions: person, oral twice daily, baseline 1.1
Protocol: The amounts of each composition were set so that by the […] given to the subject through drinking the 500 mL solution. […]
as §4, §5

Interleukin-6 = test: LabCor monthly serum marker testing: Interleukin-6; format: in vivo, human; conditions: person, oral twice daily, study month 3: NMN alone, 3rd month, baseline 1.3
Protocol: as §1, §2, §3, §4
LabCor Inc. performed the marker testing using standard protocols on a monthly basis. […]

Inflammation Score = Inflammation Score (sum of the markers) and aging prediction after Arai 2015; format: in vivo, human; conditions: person, baseline 5.17
Source text: Inflammation markers can be analyzed for aging including those markers found in the study by Arai in 2015. Aria found inflammation markers that were predictive of who would continue to live (life-span) and who would be physically and cognitively healthy (health-span). The markers used were CMV IgG, IL-6, TNF-alpha and CRP.
as §5
In the baseline condition for the subject, both C-reactive Protein (2.77 mg/L) and Interleukin-6 (1.3 pg/m14 measurements were above the “unrelated family” level (0.7 mg/l and 1.13 pg/mL) (Arai Y 2015, Table 1) as well as the “offspring” level (0.7 mg/l and 1.03 pg/mL) (Arai Y. 2015, Table 1) respectively. The […] subject of this study has a similar age to the “offspring” group and the “unrelated family” group of Arai. These two inflammation test scores effect the prediction algorithm to predict a worse aging outcome for the subject than the “offspring” or “unrelated family” groups of Arai at baseline.

[6] = NMN given to mice; cited from earlier work
CD38 = target: T1, CD38 (Homo sapiens, UniProt P28907); conditions: CD38 substrate; cited from earlier work
T1 sequence (P28907 1-300): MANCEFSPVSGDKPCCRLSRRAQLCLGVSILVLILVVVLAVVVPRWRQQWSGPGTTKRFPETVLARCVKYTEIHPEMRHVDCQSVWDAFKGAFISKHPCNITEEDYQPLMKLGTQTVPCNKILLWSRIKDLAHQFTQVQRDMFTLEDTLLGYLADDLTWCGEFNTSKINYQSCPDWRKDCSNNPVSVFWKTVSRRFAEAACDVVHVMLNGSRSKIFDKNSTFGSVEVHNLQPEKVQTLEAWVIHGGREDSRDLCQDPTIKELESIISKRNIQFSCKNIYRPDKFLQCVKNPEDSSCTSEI

[7] = cited from earlier work; remark: listed apart in the source
[8] = study month 1: NMN alone, 1st month
[9] = study month 2: NMN alone, 2nd month
[10] = study month 3: NMN alone, 3rd month

Chain of Sirt1 (Q96EB6 whole entry): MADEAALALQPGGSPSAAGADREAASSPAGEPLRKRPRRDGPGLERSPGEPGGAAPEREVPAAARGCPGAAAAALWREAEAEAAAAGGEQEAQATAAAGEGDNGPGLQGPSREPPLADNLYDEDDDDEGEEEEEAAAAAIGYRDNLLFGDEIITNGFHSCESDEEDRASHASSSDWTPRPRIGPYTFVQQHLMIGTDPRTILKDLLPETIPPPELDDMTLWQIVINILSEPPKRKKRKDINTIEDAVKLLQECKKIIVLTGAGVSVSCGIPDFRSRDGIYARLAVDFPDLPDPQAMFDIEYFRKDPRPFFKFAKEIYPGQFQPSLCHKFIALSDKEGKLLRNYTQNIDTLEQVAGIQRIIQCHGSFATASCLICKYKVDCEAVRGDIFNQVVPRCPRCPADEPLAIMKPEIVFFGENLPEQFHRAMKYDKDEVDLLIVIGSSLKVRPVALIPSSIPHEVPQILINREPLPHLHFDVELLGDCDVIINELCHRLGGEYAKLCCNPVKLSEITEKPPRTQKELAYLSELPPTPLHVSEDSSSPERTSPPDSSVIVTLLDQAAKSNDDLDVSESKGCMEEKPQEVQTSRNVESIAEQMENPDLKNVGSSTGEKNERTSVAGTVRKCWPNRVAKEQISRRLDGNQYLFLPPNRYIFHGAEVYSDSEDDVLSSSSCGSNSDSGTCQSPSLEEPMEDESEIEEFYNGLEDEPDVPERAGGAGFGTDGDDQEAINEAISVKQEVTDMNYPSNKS
Chain of PARP-1 (P09874 whole entry): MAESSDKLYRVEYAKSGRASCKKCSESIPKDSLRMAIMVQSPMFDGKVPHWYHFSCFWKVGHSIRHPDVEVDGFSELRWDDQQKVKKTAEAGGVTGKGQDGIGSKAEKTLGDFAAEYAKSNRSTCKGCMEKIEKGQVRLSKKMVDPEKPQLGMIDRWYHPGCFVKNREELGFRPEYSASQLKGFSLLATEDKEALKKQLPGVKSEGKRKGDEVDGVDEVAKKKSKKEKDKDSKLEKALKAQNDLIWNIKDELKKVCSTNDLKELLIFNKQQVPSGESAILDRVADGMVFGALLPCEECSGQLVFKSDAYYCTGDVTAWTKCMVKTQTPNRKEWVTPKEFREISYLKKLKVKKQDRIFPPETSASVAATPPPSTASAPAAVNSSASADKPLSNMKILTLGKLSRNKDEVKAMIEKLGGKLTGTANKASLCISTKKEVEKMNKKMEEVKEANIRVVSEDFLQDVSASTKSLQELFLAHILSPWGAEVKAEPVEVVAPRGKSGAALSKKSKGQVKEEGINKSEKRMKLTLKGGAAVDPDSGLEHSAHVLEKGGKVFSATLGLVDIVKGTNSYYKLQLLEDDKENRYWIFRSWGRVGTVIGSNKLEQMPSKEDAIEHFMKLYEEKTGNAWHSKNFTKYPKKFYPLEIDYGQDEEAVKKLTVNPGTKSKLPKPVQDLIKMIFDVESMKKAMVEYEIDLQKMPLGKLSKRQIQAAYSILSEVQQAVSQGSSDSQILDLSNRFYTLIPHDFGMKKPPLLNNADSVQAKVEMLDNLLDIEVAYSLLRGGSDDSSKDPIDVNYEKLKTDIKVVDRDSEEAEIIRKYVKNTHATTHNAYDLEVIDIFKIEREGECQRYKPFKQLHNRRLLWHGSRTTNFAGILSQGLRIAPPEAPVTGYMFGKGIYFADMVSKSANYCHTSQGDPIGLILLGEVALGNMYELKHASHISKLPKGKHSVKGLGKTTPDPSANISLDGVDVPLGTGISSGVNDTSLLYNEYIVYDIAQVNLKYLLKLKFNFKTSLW

## OO [H2O2, hydrogen peroxide]
Sirt1; extracellular H2O2
  extracellular H2O2 inhibition of Sirt1: 1 µmol
Sirt1; oxidizing critical cysteine residues in the Sirtuin active center
  extracellular concentration that inhibits Sirt1: 1 µM
[1]
  fraction absorbed by the gut: ~50%
[2]
  degradation rate: about 10 %/year

## S [H2S, hydrogen sulfide]
[3]; under in vivo conditions
  half-life: between seconds and minutes

## NC(=O)c1ccc[n+]([C@@H]2O[C@H](COP(=O)([O-])OP(=O)(O)OC[C@H]3O[C@@H](n4cnc5c(N)ncnc54)[C@H](O)[C@@H]3O)[C@@H](O)[C@H]2O)c1 [NAD+, nicotinamide adenine dinucleotide]
PARP-1; PARP-1, substrate NAD+
  Km: 20 to 60 µM
PARP-1; PARP-1 compared to Sirt1
  Km of PARP-1 lower than Sirtuin-1: 5 fold
Sirtuins
  Km: 100 to 300 µM
[4]; in vivo
  absorption through the digestive system: not absorbed well

## NC(=O)c1ccc[n+]([C@@H]2O[C@H](COP(=O)([O-])O)[C@@H](O)[C@H]2O)c1 [NMN, Nicotinamide mononucleotide]
CMV IgG; [8]
  CMV IgG: 0
CMV IgG; [9]
  CMV IgG: 0
CMV IgG; [10]
  CMV IgG: 0
C-Reactive Protein; after two months of treatment with NMN, subject
  CRP: 0.43 mg/L
C-Reactive Protein; [9]
  C-Reactive Protein: 0.43 mg/L
C-Reactive Protein; [10]
  C-Reactive Protein: 0.53 mg/L
[5]; [8]
  Tumor Necrosis Factor-Alpha: 0.9 pg/mL
[5]; [9]
  Tumor Necrosis Factor-Alpha: 1.1 pg/mL
[5]; [10]
  Tumor Necrosis Factor-Alpha: 1.1 pg/mL
Interleukin-6
  Interleukin-6 Serum: 0.9 pg/mL
Inflammation Score; [8]
  Inflammation Score: 8.55
Inflammation Score; [9]
  Inflammation Score: 2.23
Inflammation Score; [10]
  Inflammation Score: 2.53
[6]
  time to create NAD+ out of the NMN: 15 min
CD38
  kcat relative to that of NAD+: 5 fold

## NC(=O)c1ccc[n+]([C@@H]2O[C@H](CO)[C@@H](O)[C@H]2O)c1 [NR, nicotinamide riboside]
[4]; orally delivered
  reaching muscle: largely not reach muscle

## S [NaHS, sodium hydrosulfide]
[3]; H2S donors
  time to increase of H2S concentration: within seconds to minutes

## C[S+](CC[C@H](N)C(=O)O)C[C@H]1O[C@@H](n2cnc3c(N)ncnc32)[C@H](O)[C@@H]1O (stereo partly drawn) [SAM, S-5′-adenosyl-L-methionine]
[7]
  fraction that gets into the body when ingested: about 2%
